Experimental data from article PMC5598241 (Toxicology Reports, 2015).
Values belong to the compound of their own block, whether it stands above or below them.

Legend:
Sprague Dawley (SD) rats [1] = experiment: Liver function tests after single oral PAR overdose with or without GFJ or BGT; assay type: in vivo, rat; conditions: for Liver function tests ALP / Liver function tests ALT / Liver function tests AST: PAR 1725 mg/kg oral alone, mean ± SD, n = 5
[2] = PAR plasma concentration by HPLC; assay type: in vivo; conditions: Sprague Dawley, rat, oral, 1725 mg/kg
Sprague Dawley (SD) rats [3] = experiment: Full blood count after drug administration; assay type: in vivo, rat; conditions: for Full blood count Hb / Full blood count Hct / Full blood count MCH / Full blood count MCHC / Full blood count MCV / Full blood count Plt / Full blood count RCC / Full blood count WCC: PAR 1725 mg/kg oral alone, mean ± SD, n = 3; for thrombocytopenia (low platelet count): all test animals given PAR, GFJ and BGT = groups co-treated with PAR
SD rats = experiment: Preliminary determination of the toxic dose of PAR; assay type: in vivo, rat; conditions: preliminary experiment
humans = conditions: stated without reference; cited from earlier work
[4] = tested on: P450 enzymes CYP1A2, CYP2C9, CYP2C19, CYP2D6 and CYP3A4; conditions: furanocoumarin dimers versus monomer; cited from earlier work
[5] = 48 h after dosing, listed as PAR only
[6] = 48 h after dosing, listed as PAR-only
[7] = PAR 1725 mg/kg single dose, 72 h, 3 rats
[8] = PAR 1822 mg/kg single dose, 72 h, 3 rats

Liver function tests ALP (Sprague Dawley (SD) rats [1]; 24 h after dosing): 319 ± 2.1 units/l | Liver function tests ALP (Sprague Dawley (SD) rats [1]; 48 h after dosing): 296 ± 148.5 units/l | Liver function tests ALP (Sprague Dawley (SD) rats [1]; 72 h after dosing): 267 ± 38.9 units/l | concentration at 24 h [2]: 5720 ng/mL | concentration at 48 h [2]: 4450 ng/mL | concentration at 72 h [2]: 2020 ng/mL | Full blood count Hb (Sprague Dawley (SD) rats [3]; 24 h): 15.2 ± 0 | Full blood count Hct (Sprague Dawley (SD) rats [3]; 24 h): 0.439 ± 0 | Full blood count MCH (Sprague Dawley (SD) rats [3]; 24 h): 19.9 ± 0 | Full blood count MCHC (Sprague Dawley (SD) rats [3]; 24 h): 34.5 ± 0 | Full blood count MCV (Sprague Dawley (SD) rats [3]; 24 h): 57.6 ± 1 | Full blood count Plt (Sprague Dawley (SD) rats [3]; 24 h): 1159 ± 81 | Full blood count RCC (Sprague Dawley (SD) rats [3]; 24 h): 7.6 ± 0 | Full blood count WCC (Sprague Dawley (SD) rats [3]; 24 h): 4.1 ± 1 | Full blood count Hb (Sprague Dawley (SD) rats [3]; 48 h): 15.3 ± 1 | Full blood count Hct (Sprague Dawley (SD) rats [3]; 48 h): 0.464 ± 0 | Full blood count MCH (Sprague Dawley (SD) rats [3]; 48 h): 20.4 ± 0 | Full blood count MCHC (Sprague Dawley (SD) rats [3]; 48 h): 33.1 ± 0 | Full blood count MCV (Sprague Dawley (SD) rats [3]; 48 h): 61.1 ± 1 | Full blood count Plt (Sprague Dawley (SD) rats [3]; 48 h): 310 ± 305 | Full blood count RCC (Sprague Dawley (SD) rats [3]; 48 h): 7.5 ± 0 | Full blood count WCC (Sprague Dawley (SD) rats [3]; 48 h): 5.9 ± 0 | Full blood count Hb (Sprague Dawley (SD) rats [3]; 72 h): 13.6 ± 2 | Full blood count Hct (Sprague Dawley (SD) rats [3]; 72 h): 0.406 ± 0 | Full blood count MCH (Sprague Dawley (SD) rats [3]; 72 h): 19.8 ± 1 | Full blood count MCHC (Sprague Dawley (SD) rats [3]; 72 h): 33.7 ± 1 | Full blood count MCV (Sprague Dawley (SD) rats [3]; 72 h): 58.9 ± 4 | Full blood count Plt (Sprague Dawley (SD) rats [3]; 72 h): 326 ± 293 | Full blood count RCC (Sprague Dawley (SD) rats [3]; 72 h): 6.8 ± 1 | Full blood count WCC (Sprague Dawley (SD) rats [3]; 72 h): 4.7 ± 1 | thrombocytopenia (low platelet count) (Sprague Dawley (SD) rats [3]): thrombocytopenia
Compound: CC(=O)Nc1ccc(O)cc1 [PAR, paracetamol]
Liver function tests ALT (Sprague Dawley (SD) rats [1]; 24 h after dosing): 63 ± 41.3 units/l | Liver function tests AST (Sprague Dawley (SD) rats [1]; 24 h after dosing): 156 ± 76.2 units/l | Liver function tests ALT (Sprague Dawley (SD) rats [1]; [5]): 837 ± 268 units/l | Liver function tests AST (Sprague Dawley (SD) rats [1]; [5]): 1359 ± 405 units/l | Liver function tests ALT (Sprague Dawley (SD) rats [1]; [6]): 837 ± 268.0 units/l | Liver function tests AST (Sprague Dawley (SD) rats [1]; [6]): 1359 ± 404.5 units/l | Liver function tests ALT (Sprague Dawley (SD) rats [1]; 72 h after dosing): 419 ± 690.1 units/l | Liver function tests AST (Sprague Dawley (SD) rats [1]; 72 h after dosing): 512 ± 657.9 units/l | change in liver enzymes (SD rats; PAR 1000 mg dose, 24, 48 and 72 h): no change | ALP (SD rats; [7]): 260.0 ± 36 | AST (SD rats; [7]): 512.0 ± 593 | ALP (SD rats; [8]): 223.7 ± 82 | ALT (SD rats; [8]): 44.3 ± 3 | AST (SD rats; [8]): 104.0 ± 14 | hepatotoxic dose of PAR in humans (humans): 100 mg/kg

Compound: CC(C)=CCC/C(C)=C/COc1c2ccoc2cc2oc(=O)ccc12 [BGT, bergamottin]
PAR-induced hepatotoxicity after PAR overdose (Sprague Dawley (SD) rats [1]; co-administered orally with PAR 1725 mg/kg in rats): prevented | thrombocytopenia (low platelet count) (Sprague Dawley (SD) rats [3]): moderate

Compound: paradisine A
enzyme inhibitor potency relative to 6-7-dihydroxybergamottin (DHB) [4]: over 20 times | enzyme inhibitor potency relative to BGT (GF-I-2) [4]: over 100 times

Compound: paradisine B
enzyme inhibitor potency relative to 6-7-dihydroxybergamottin (DHB) [4]: over 20 times | enzyme inhibitor potency relative to BGT (GF-I-2) [4]: over 100 times
